Here are results for 7 molecules from ChEMBL document CHEMBL1201862, “PubChem BioAssay data set” (2004).

Some test systems named below: CAKI-1; HCC 2998; HCT-15; IGROV-1; K562; M14; MCF7; MDA-N; MOLT-4; NCI-H522; OVCAR-3; OVCAR-8; RXF 393; SF-268; SF-295; SK-MEL-2; SNB-19; SNB-75; TK-10; UO-31.
Common to all, as to assay: growth of human tumour cells (NCI), 48 h

The structures appear in SMILES notation.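 Step 1: Grow cells in 96-well plates. Step 2: Expose to compound for 48 hours at 5 concentrations. Step 3: Interpolate endpoints linearly; if unreached, use highest concentration. GI50: concentration for 50% inhibition of growth.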 Activity calls are given as the source filed them. No stated cut-off is given here; in the data, active = GI50 up to about 1.1 µM and inactive = higher.

Regarding `CSC(=O)/C=C1\SS/C(=C\C(=O)SC)S1`, the GI50 is 1.39 µM (inactive) with CAKI-1; 1.8 µM (inactive) in the test on HCC 2998; 2.06 µM with HCT-15; 3.37 µM (inactive) with IGROV-1; 2.79 µM (inactive) in the test with K562; 2.09 µM (inactive) in the test with M14. Moreover, the GI50 in the test with MCF7 was 2.74 µM (inactive); in the test on MDA-N it was 2.51 µM (inactive); in the test with MOLT-4 it was 1.77 µM (inactive); in the test on NCI-H522, 2.39 µM (inactive); with OVCAR-3, 2.99 µM (inactive); in the test on OVCAR-8, 3.44 µM (inactive). Besides, the GI50 in the test with RXF 393 is 1.24 µM (inactive); with SF-268 it was 2.49 µM (inactive); with SF-295 it was 5.36 µM (inactive); in the test on SK-MEL-2, 2.15 µM (inactive); with SNB-19, 6.92 µM (inactive); with SNB-75, 2.58 µM (inactive). Besides, the GI50 in the test on TK-10 was 4.93 µM (inactive); with UO-31, 2.43 µM (inactive).

On to `O=[N+]([O-])C(=C/c1cccs1)/C(=C\c1cccs1)[N+](=O)[O-]`, for which the GI50 was 0.465 µM (active) in the test on CAKI-1; 1.21 µM (inactive) with HCC 2998; 0.199 µM with HCT-15; 0.774 µM (active) with IGROV-1; 0.272 µM (active) with K562; 1.04 µM (active) with M14. Further, the GI50 is 0.676 µM (active) in the test on MCF7; 0.423 µM (active) with MDA-N; 0.157 µM (active) in the test with MOLT-4; 0.327 µM (active) in the test on NCI-H522; 1.85 µM (inactive) with OVCAR-3; 0.342 µM (active) with OVCAR-8. The GI50 with RXF 393 is 0.157 µM (active); in the test with SF-268, 0.861 µM (active); with SF-295, 1.96 µM (inactive); in the test on SK-MEL-2 it was 1.75 µM (inactive); in the test on SNB-19 it was 1.98 µM (inactive); in the test on SNB-75, 9.46 µM (inactive). For the same molecule, the GI50 with TK-10 is 0.962 µM (active); in the test on UO-31, 1.2 µM (inactive).

In the case of `Cn1c(N=P(c2ccccc2)(c2ccccc2)c2ccccc2)c([N+](=O)[O-])c(=O)n(C)c1=O`, the GI50 is > 100 µM (inactive) in the test on CAKI-1; 71.8 µM (inactive) in the test on HCC 2998; 51.9 µM with HCT-15; 48 µM (inactive) in the test on IGROV-1; 16.2 µM (inactive) with K562; 31.6 µM (inactive) in the test on M14. The GI50 in the test on MCF7 is 42.3 µM (inactive); in the test with MDA-N it was 34.1 µM (inactive); in the test with MOLT-4, 21.2 µM (inactive); in the test on NCI-H522, 41.9 µM (inactive); in the test on OVCAR-3, 30.5 µM (inactive); with OVCAR-8, 0.991 µM (active). For the same molecule, the GI50 is > 100 µM (inactive) in the test on RXF 393; 78.7 µM (inactive) with SF-268; 53 µM (inactive) in the test on SF-295; 17.4 µM (inactive) in the test on SK-MEL-2; > 100 µM (inactive) with SNB-19; 25.5 µM (inactive) with SNB-75. Further, the GI50 in the test on TK-10 was 67.9 µM (inactive); in the test on UO-31 it was 71 µM (inactive).

On to `COc1ccc(Cn2c3c(cc(OC(C)=O)c2=O)Cc2ccccc2-3)cc1`, for which the GI50 was 10.7 µM (inactive) in the test on CAKI-1; 3.33 µM (inactive) in the test on HCC 2998; 2.55 µM with HCT-15; 7.82 µM (inactive) in the test on IGROV-1; 11.6 µM (inactive) in the test on K562; 6.24 µM (inactive) in the test with M14. Also, the GI50 in the test on MCF7 was 13.7 µM (inactive); with MDA-N, 12.1 µM (inactive); with MOLT-4, 2.88 µM (inactive); in the test with NCI-H522 it was 7.01 µM (inactive); in the test on OVCAR-3 it was 10.7 µM (inactive); in the test on OVCAR-8 it was 7.64 µM (inactive). Moreover, the GI50 was 8.36 µM (inactive) in the test on RXF 393; 7.82 µM (inactive) in the test with SF-268; 17 µM (inactive) in the test with SF-295; 4.61 µM (inactive) in the test on SK-MEL-2; 12.9 µM (inactive) with SNB-19; 11.7 µM (inactive) with SNB-75. In addition, the figures for the GI50 in the test on TK-10 and with UO-31 were 13.1 µM (inactive) and 5.56 µM (inactive), respectively.

With `O=c1c(C(c2ccc(OCc3ccccc3)cc2)c2c(O)oc3ccccc3c2=O)c(O)oc2ccccc12`, the GI50 in the test on CAKI-1 was 27.2 µM (inactive); in the test with HCC 2998, 35.1 µM (inactive); in the test with HCT-15, 41.7 µM; with IGROV-1 it was 77.4 µM (inactive); with K562 it was 10 µM (inactive); with M14, 48.1 µM (inactive). Moreover, the GI50 in the test with MCF7 was 48.4 µM (inactive); in the test with MDA-N, 24.7 µM (inactive); in the test on MOLT-4, 37.3 µM (inactive); with NCI-H522 it was 27.2 µM (inactive); in the test on OVCAR-3, 63.8 µM (inactive); with OVCAR-8, 33.4 µM (inactive). The GI50 with RXF 393 is > 100 µM (inactive); in the test with SF-268, 29.4 µM (inactive); with SF-295, 61.2 µM (inactive); in the test on SK-MEL-2, 61.1 µM (inactive); in the test on SNB-19 it was 40.6 µM (inactive); in the test on SNB-75, 18.6 µM (inactive). For the same molecule, the GI50 in the test with TK-10 is 62.1 µM (inactive); in the test on UO-31, 19 µM (inactive).

`CSc1nc(C)cc(N(C)c2ccccc2)n1`: the GI50 in the test on CAKI-1 is 33 µM (inactive); with HCC 2998 it was > 100 µM (inactive); in the test with HCT-15, 38.4 µM; with IGROV-1 it was 36.9 µM (inactive); in the test on K562, 44 µM (inactive); with M14, 30.1 µM (inactive). The GI50 in the test on MCF7 was 24.9 µM (inactive); in the test with MDA-N it was 24.1 µM (inactive); in the test on MOLT-4 it was 29.7 µM (inactive); in the test with NCI-H522, 65.6 µM (inactive); in the test with OVCAR-3 it was 27.3 µM (inactive); in the test with OVCAR-8 it was 34.8 µM (inactive). Besides, the GI50 in the test on RXF 393 was 31 µM (inactive); with SF-268 it was 43.8 µM (inactive); with SF-295, 34.7 µM (inactive); in the test on SK-MEL-2, 40 µM (inactive); with SNB-19, 85.5 µM (inactive); in the test with SNB-75, 27.1 µM (inactive). Moreover, the GI50 with TK-10 was 33.5 µM (inactive); in the test on UO-31 it was 5.33 µM (inactive).

In the case of `Cc1[nH]c2ccccc2c1/C=N/c1ccc(/N=C/c2c(C)[nH]c3ccccc23)cc1`, the GI50 is 38.7 µM (inactive) with CAKI-1; 36.9 µM (inactive) with HCC 2998; 32 µM with HCT-15; 49.9 µM (inactive) in the test with IGROV-1; 21.2 µM (inactive) with K562; 71.3 µM (inactive) with M14. Also, the GI50 with MCF7 is 16.5 µM (inactive); with MDA-N it was 30.5 µM (inactive); in the test with MOLT-4, 18.9 µM (inactive); with NCI-H522 it was 17.5 µM (inactive); with OVCAR-3, 41 µM (inactive); in the test on OVCAR-8, 29.7 µM (inactive). Moreover, the GI50 with RXF 393 was 53 µM (inactive); with SF-268 it was 50 µM (inactive); with SF-295 it was 40.6 µM (inactive); with SK-MEL-2, 23.9 µM (inactive); with SNB-19 it was 61.9 µM (inactive); in the test on SNB-75 it was 48.3 µM (inactive). Further, the GI50 is 90.4 µM (inactive) with TK-10 and 77.4 µM (inactive) in the test on UO-31.
